The source of these data is PubChem BioAssay (NCI).

Values joined by “and” are separate entries in the source; they are usually repeats but may differ in a detail not shown here. Equal values may be shown once.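 A five-concentration, 48-hour dose response in 96-well plates underlies each endpoint, interpolated linearly between surrounding concentrations. The concentration for 50% growth inhibition is given as GI50. The concentration for full growth arrest is given as TGI.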

Test in all cases: NCI tumour cell line growth inhibition, 48 h
For test [1], the system named is ACHN renal.
For test [2], the system named is COLO 205 colon.
In test [3] the test system is MDA-MB-435.
In test [4] the test system is NCI-H226 lung.
For test [5], the system named is SF-268 CNS.
In test [6] the test system is SF-539 CNS.
Test [7] concerns SK-MEL-2 melanoma.
The subject of test [8] is SNB-75 CNS.
Test [9] deals with UACC-62 melanoma.
Test [10] relates to UO-31 renal.

Turning to `Cc1ccc(S(=O)(=O)Cc2nc(-c3ccc(C(=O)NCc4cccnc4)cc3)oc2C)cc1`, the GI50 in [1] is 7.06 µM; in test [2], 0.492 µM; in test [3] it was 0.054 µM; in test [4], above 100 µM; in test [5], 19 µM; in [6], below 0.01 µM. For the same molecule, the GI50 in test [7] was 5.45 µM; in test [8], 4.73 µM; in test [9], above 91.2 µM; in test [10] it was 23.7 µM. Further, the TGI is above 100 µM in test [1]; above 100 µM in test [2]; 12 µM in [3]; above 100 µM in test [4]; above 100 µM in test [5]; above 35.5 µM in test [6]. The TGI in test [7] is above 86.3 µM; in test [8], 47.9 µM; in test [9], above 100 µM; in test [10] it was above 100 µM.
Consider `CCCCCCCCCCCCOC1C(CNC(=O)C2OC3OC(C)(C)OC3C2NC(=O)CN2CCCCCC2)OC2OC(C)(C)OC21` (stereo not given), for which the GI50 in test [1] is 10.7 µM; in test [2], 2.49 µM; in [3], 2.72 µM; in test [4] it was 16.7 µM; in test [5], 5.27 µM; in test [6], 3.54 µM. For the same molecule, the GI50 in [7] was 5.69 µM; in test [8], 8.49 µM; in test [9], 1.83 µM; in test [10] it was 6.22 µM. The TGI in test [1] is 25.3 µM; in [2] it was 6.76 µM; in test [3], 7.9 µM; in test [4], 38.1 µM; in [5] it was 20.8 µM; in [6], 8.58 µM. Moreover, the TGI in [7] turned out to be 12 µM; in test [8] it was 21.4 µM; in test [9] it was 3.48 µM; in test [10], 18 µM.
Consider `Cc1nc2n(c(=O)c1CCN1CCC(c3noc4cc(F)ccc34)CC1)CCCC2`, for which the GI50 in test [1], in test [2], in test [3], in test [4], in [5] and in [6] was above 50 µM each time. Also, the GI50 in test [7], in test [8], in test [9] and in [10] was above 50 µM throughout. Besides, the TGI in [1], in test [2], in [3], in test [4], in test [5] and in [6] was above 50 µM each time. In addition, the TGI in [7], in [8], in test [9] and in test [10] was above 50 µM in each case.
For the molecule `COc1ccc2c(c1)[n+](=O)c(C(=O)/C=C/c1cc(OC)c(OC)c(OC)c1)c(C)n2[O-]`, the GI50 was 13.5 µM in test [1]; 65 µM in [2]; above 100 µM in test [3]; 26.3 µM in [4]; 8.15 µM in test [5]; 14.4 µM in test [6]. The GI50 in test [7] was 33.7 µM; in [8], 12 µM; in test [9] it was 17.2 µM; in [10] it was 28 µM. The TGI was 28.8 µM in test [1]; above 100 µM in test [2]; above 100 µM in test [3]; 82.4 µM in test [4]; 40.4 µM in [5]; 29.7 µM in test [6]. The TGI in [7] is above 100 µM; in test [8], 34.7 µM; in [9] it was 37.3 µM; in [10], 78.6 µM.
`Cc1c(NC(=O)OC[C@@H]2COCCN2)cn2ncnc(Nc3ccc4c(cnn4Cc4cccc(F)c4)c3)c12`: the GI50 in test [1] is 0.576 µM and 0.44 µM; in test [2] it was 4.75 µM and 5.07 µM; in test [3] it was > 10 µM and 9.97 µM; in test [4] it was > 10 µM and 11.3 µM; in test [5], > 10 µM and 7.18 µM; in test [6], > 10 µM and 11.3 µM. Moreover, the GI50 in test [7] was > 10 µM and 12.9 µM; in test [8] it was 8 µM and 7.09 µM; in test [9], > 10 µM and 4.82 µM; in test [10] it was 1.25 µM and 1.55 µM. For the same molecule, the TGI was > 10 µM and 15.3 µM in test [1]; > 10 µM and 16.9 µM in [2]; > 10 µM and 23 µM in test [3]; > 10 µM and 35.6 µM in test [4]; > 10 µM and 24.5 µM in test [5]; > 10 µM and 25.2 µM in test [6]. Further, the TGI was > 10 µM and 29.4 µM in test [7]; > 10 µM and 30.9 µM in [8]; > 10 µM and 18.7 µM in [9]; > 10 µM and 16.5 µM in test [10].
As to `COc1ccc(-c2csc(-c3cc(Cl)cc(Cl)c3Cl)n2)cc1`, the GI50 is above 100 µM in test [1]; above 100 µM in test [2]; 21.8 µM in [3]; 78 µM in [4]; 58 µM in test [5]; 41.8 µM in test [6]. Moreover, the GI50 in test [7] was above 100 µM; in [8], 40 µM; in test [9], 41.9 µM; in [10], above 100 µM. Also, the TGI in test [1], in [2], in test [3], in test [4], in [5] and in test [6] was above 100 µM in each case. Besides, the TGI in test [7], in test [8], in test [9] and in test [10] was above 100 µM each time.
In the case of `CS(=O)(=O)CCNCc1ccc(-c2ccc3ncnc(Nc4ccc(OCc5ccccc5)c(Cl)c4)c3c2)o1`, the GI50 in test [1] was 0.187 µM; in test [2] it was 4.05 µM; in [3], 4.47 µM; in test [4] it was 4.74 µM; in test [5], 6.52 µM; in test [6], 4.26 µM. Also, the GI50 was 4.62 µM in test [7], 4.94 µM in [8], 4.11 µM in test [9] and 1.64 µM in test [10]. Moreover, the TGI in test [1] was above 25 µM; in test [2] it was 9.67 µM; in test [3], 9.78 µM; in test [4], above 22.9 µM; in test [5], above 25 µM; in test [6], 9.2 µM. Moreover, the TGI was 9.71 µM in test [7], above 25 µM in test [8], 8.15 µM in test [9] and 7.38 µM in test [10].
